From patent US4198421A, “Antiinflammatory 2-substituted-dibenzo[2,3:6,7]oxepino[4,5-d]imidazoles” (E. I. Du Pont de Nemours and Company, priority 1978, dated 1980)
Read-outs that look alike come from different tables or passages of the source.

Test system: adjuvant-induced arthritis
Assay: Established Adjuvant-Induced Arthritis in Rats (A.A.)
Format: in vivo, Charles River Lewis male rats
Details: Rattus norvegicus, 168 h, read-out: A. A. ED50%
[1] = ED50% decrease from control paw volume (uninjected, left hind paw), established adjuvant-induced arthritis, oral gavage daily, 7 days, read by visual fit

O=S(=O)(c1nc2c([nH]1)-c1ccc(F)cc1Oc1ccccc1-2)C(F)(F)C(F)F [Example 2, 10-Fluoro-2-[(1,1,2,2-tetrafluoroethyl)sulfonyl]-1H-dibenzo[2,3:6,7]oxepino[4,5-d]imidazole]
ED50 [1]: 4.5 mg/kg

COc1ccc2c(c1)c(CC(=O)O)c(C)n2C(=O)c1ccc(Cl)cc1 [Indomethacin, indomethacin]
ED50 (po): 0.3 mg/kg

CCCCC1C(=O)N(c2ccccc2)N(c2ccccc2)C1=O [Phenylbutazone, phenylbutazone]
ED50 [1]: 10 mg/kg

Fc1ccc2c(c1)Oc1ccccc1-c1nc(SC(F)(F)C(F)F)[nH]c1-2 [1 (k), 10-Fluoro-2-[(1,1,2,2-tetrafluoroethyl)thio]-1H-dibenzo[2,3:6,7]oxepino[4,5-d]imidazole]
ED50 [1]: < 27 mg/kg

CC(C)Cc1ccc(C(C)C(=O)O)cc1 (centres unmarked) [Ibuprofen, ibuprofen]
ED50 [1]: 100 mg/kg
